# Measured values as given in the supplement of paper PMC10307832.
# Legend:
# Experiment in all cases: relative viability (nuclei count vs DMSO), 5 days (fraction); higher = more cells survive
# 4EGI-1 + Decitabine = compound: O=C(O)C(Cc1ccccc1[N+](=O)[O-])=NNc1nc(-c2ccc(Cl)c(Cl)c2)cs1 (mixture of isomers) [4EGI-1] + Nc1ncn([C@H]2C[C@H](O)[C@@H](CO)O2)c(=O)n1 [Decitabine] (partner 2 µM)
# Outline: (§1)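 Lung cancer cell lines were pin-tool dosed in 1536-well plates on the day after seeding, with either a lone drug or a fixed anchor-drug dose plus five library-drug doses (not always all listed) in √10 steps. Nuclei were counted on 4× images after 5 days. Relative viability is the ratio of treated-well to vehicle-well nuclei counts, with each value a median of duplicate plates.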
# XMD8-85 + Pemetrexed = compound: CN1CCN(CC1)C2=CC(=C(C=C2)NC3=NC=C4C(=N3)N(C5=CC=CC=C5C(=O)N4C)C)OC [XMD8-85] + Nc1nc2[nH]cc(CCc3ccc(C(=O)N[C@@H](CCC(=O)O)C(=O)O)cc3)c2c(=O)[nH]1 [Pemetrexed] (partner 0.2 µM)
# Outline: as §1
# 4EGI-1 + Olaparib = compound: O=C(O)C(Cc1ccccc1[N+](=O)[O-])=NNc1nc(-c2ccc(Cl)c(Cl)c2)cs1 (mixture of isomers) [4EGI-1] + O=C(c1cc(Cc2n[nH]c(=O)c3ccccc23)ccc1F)N1CCN(C(=O)C2CC2)CC1 [Olaparib] (partner 8 µM)
# Outline: as §1
# 4EGI-1 + OSI-027 = compound: O=C(O)C(Cc1ccccc1[N+](=O)[O-])=NNc1nc(-c2ccc(Cl)c(Cl)c2)cs1 (mixture of isomers) [4EGI-1] + COc1cccc2cc(-c3nc([C@H]4CC[C@H](C(=O)O)CC4)n4ncnc(N)c34)[nH]c12 [OSI-027] (partner 0.5 µM)
# Outline: as §1
Cell Line,relative viability (4EGI-1 + Decitabine; first compound 0.5 µM),relative viability (4EGI-1 + Decitabine; first compound 1.581 µM),relative viability (4EGI-1 + Decitabine; first compound 5 µM),relative viability (4EGI-1 + Decitabine; first compound 15.81 µM),relative viability (4EGI-1 + Decitabine; first compound 50 µM),relative viability (XMD8-85 + Pemetrexed; first compound 0.08 µM),relative viability (XMD8-85 + Pemetrexed; first compound 0.253 µM),relative viability (XMD8-85 + Pemetrexed; first compound 0.8 µM),relative viability (XMD8-85 + Pemetrexed; first compound 2.53 µM),relative viability (XMD8-85 + Pemetrexed; first compound 8 µM),relative viability (4EGI-1 + Olaparib; first compound 0.5 µM),relative viability (4EGI-1 + Olaparib; first compound 1.581 µM),relative viability (4EGI-1 + Olaparib; first compound 5 µM),relative viability (4EGI-1 + Olaparib; first compound 15.81 µM),relative viability (4EGI-1 + Olaparib; first compound 50 µM),relative viability (4EGI-1 + OSI-027; first compound 0.5 µM),relative viability (4EGI-1 + OSI-027; first compound 1.581 µM),relative viability (4EGI-1 + OSI-027; first compound 5 µM),relative viability (4EGI-1 + OSI-027; first compound 15.81 µM),relative viability (4EGI-1 + OSI-027; first compound 50 µM)
LCLC-103H,0.778,0.733,0.688,0.666,0.458,0.426,0.452,0.401,0.432,0.398,0.72,0.658,0.728,0.699,0.415,0.479,0.469,0.482,0.471,0.333
NCI-H1734,0.569,0.535,0.519,0.463,0.29,–,0.405,0.419,0.354,0.366,0.642,0.512,0.695,0.435,0.244,0.698,0.432,0.618,0.55,0.23
HOP-62,0.272,0.199,0.215,0.202,0.183,0.307,0.358,0.349,0.251,0.247,0.493,–,0.445,0.208,0.267,0.878,0.585,0.839,0.746,0.483
HCC-15,0.89,0.723,0.675,0.527,0.217,0.202,0.216,0.212,0.207,0.187,0.716,0.691,0.634,0.676,0.517,0.692,–,0.734,0.557,0.19
NCI-H2405,0.791,–,0.755,0.734,0.478,1.12,1.05,1.04,1.01,0.602,0.909,–,0.883,0.866,0.395,0.679,0.557,0.677,0.698,0.693
NCI-H1793,0.557,0.333,0.442,0.427,0.238,–,0.824,0.839,1.18,0.645,1.02,1.16,1.13,0.504,0.234,0.331,0.287,0.355,0.247,0.134
EKVX,0.386,–,0.371,0.276,0.319,0.276,0.347,0.382,–,0.381,0.838,–,0.862,0.692,0.592,0.736,0.594,0.738,0.567,0.696
COR-L23,0.473,0.343,0.474,0.291,0.171,0.187,0.2,0.199,0.187,0.18,0.35,0.217,0.344,0.271,0.175,0.899,0.459,0.848,0.542,0.138
SW 1573,0.623,0.427,0.495,0.254,0.112,0.831,0.813,1.06,0.895,0.461,0.529,0.317,0.672,0.213,0.113,0.884,0.431,0.703,0.284,0.11
NCI-H1648,0.462,0.501,0.518,0.537,0.416,–,0.693,0.826,0.765,0.692,0.742,0.79,0.965,0.566,0.48,0.254,0.26,0.252,0.302,0.213
COR-L 105,0.681,0.558,0.587,0.472,0.523,1.01,1.16,1.21,0.816,0.58,0.64,0.635,0.644,0.559,0.537,0.937,0.572,0.718,0.434,0.535
NCI-H2023,0.242,0.173,0.221,0.128,0.0871,0.189,0.223,0.326,0.255,0.165,0.5,0.306,0.432,0.127,0.0742,0.712,–,0.359,0.162,0.0791
NCI-H1355,0.364,0.36,0.358,0.328,0.336,1.04,1.02,1.03,1.07,0.976,0.86,0.742,0.795,0.469,0.334,0.397,0.354,0.384,0.291,0.264
NCI-H1975,0.367,0.433,0.375,0.355,0.221,0.257,0.286,0.305,0.282,0.227,0.893,0.682,0.805,0.812,0.292,0.837,0.665,0.792,0.74,0.391
EPLC-272H,0.45,–,0.359,0.31,0.305,0.279,0.318,0.314,0.223,0.36,0.781,0.42,0.952,0.436,0.135,0.317,–,0.285,0.274,0.172
NCI-H1915,0.27,0.226,0.259,0.247,0.215,0.434,0.523,0.484,0.5,0.457,0.261,0.207,0.275,0.207,0.152,0.623,0.448,0.625,0.617,0.287
LXF-289,0.436,0.346,0.391,0.359,0.287,0.856,0.88,0.878,0.949,0.899,1.09,0.975,1.02,1.05,0.513,0.825,0.809,0.758,0.756,0.519

Cell Line,relative viability (4EGI-1 + Decitabine; first compound 0.5 µM),relative viability (4EGI-1 + Decitabine; first compound 1.581 µM),relative viability (4EGI-1 + Decitabine; first compound 5 µM),relative viability (4EGI-1 + Decitabine; first compound 15.81 µM),relative viability (4EGI-1 + Decitabine; first compound 50 µM),relative viability (XMD8-85 + Pemetrexed; first compound 0.08 µM),relative viability (XMD8-85 + Pemetrexed; first compound 0.253 µM),relative viability (XMD8-85 + Pemetrexed; first compound 0.8 µM),relative viability (XMD8-85 + Pemetrexed; first compound 2.53 µM),relative viability (XMD8-85 + Pemetrexed; first compound 8 µM),relative viability (4EGI-1 + Olaparib; first compound 0.5 µM),relative viability (4EGI-1 + Olaparib; first compound 1.581 µM),relative viability (4EGI-1 + Olaparib; first compound 5 µM),relative viability (4EGI-1 + Olaparib; first compound 15.81 µM),relative viability (4EGI-1 + Olaparib; first compound 50 µM),relative viability (4EGI-1 + OSI-027; first compound 0.5 µM),relative viability (4EGI-1 + OSI-027; first compound 1.581 µM),relative viability (4EGI-1 + OSI-027; first compound 5 µM),relative viability (4EGI-1 + OSI-027; first compound 15.81 µM),relative viability (4EGI-1 + OSI-027; first compound 50 µM)
LK-2,0.273,–,0.318,0.315,0.166,0.322,0.289,0.282,0.212,0.173,0.86,–,0.884,0.654,0.404,0.196,–,0.201,0.182,0.178
H3255,0.684,–,0.638,–,0.594,0.558,–,0.525,0.599,0.375,0.591,0.501,0.541,0.5,0.405,0.655,0.564,0.611,0.448,0.578
NCI-H2087,0.376,0.338,0.258,0.218,0.158,0.654,0.697,0.692,0.731,0.659,0.633,0.562,0.542,0.278,0.162,0.693,0.523,0.656,0.438,0.203
EMC-BAC-2,1.21,–,0.972,0.904,0.436,0.391,0.423,0.45,0.411,0.376,0.517,–,0.5,0.37,0.2,0.39,0.342,0.4,0.374,0.327
NCI-H2126,0.611,0.65,0.617,0.472,0.488,0.705,0.758,0.693,0.707,0.623,1,0.927,0.858,0.942,0.654,0.721,0.697,0.778,0.572,0.511
NCI-H441,0.262,0.258,0.251,0.244,0.18,0.263,0.261,0.247,0.279,0.256,0.654,0.425,0.597,0.315,0.192,0.812,0.488,0.653,0.478,0.333
HCC-366,0.364,0.29,0.549,0.256,0.0833,0.147,0.163,0.146,0.129,0.168,0.342,0.203,0.395,0.257,0.0601,0.922,0.742,1.13,0.669,0.277
NCI-H520,0.568,0.499,0.499,0.562,0.25,0.709,0.697,0.75,0.595,0.361,0.375,0.329,0.458,0.265,0.13,0.262,0.325,0.314,0.345,0.179
NCI-H522,0.666,0.63,0.693,0.679,0.63,0.762,0.916,1.01,1.08,0.825,0.694,0.776,0.617,0.574,0.471,0.69,0.645,0.693,0.689,0.63
NCI-H2342,0.757,0.704,0.742,0.737,0.731,0.808,0.805,0.891,0.828,0.775,0.472,0.429,0.43,0.569,0.51,0.596,0.644,0.62,0.625,0.517
HCC-44,0.964,0.905,0.936,0.924,0.432,0.65,0.701,0.647,0.597,0.632,0.959,0.829,0.953,0.934,0.752,0.483,–,0.41,0.404,0.175
BEN,0.758,0.635,0.78,0.578,0.522,0.811,0.771,0.696,0.735,0.474,1.15,1.09,1.2,0.891,0.595,0.328,0.281,0.324,0.317,0.26
HARA,0.446,0.511,0.692,0.366,0.167,0.26,0.227,0.307,0.295,0.229,0.848,0.68,1,0.515,0.18,0.651,0.517,0.648,0.453,0.154
NCI-H2085,0.536,0.578,0.513,0.488,0.317,0.889,0.826,0.849,0.811,0.713,0.764,0.72,0.739,0.726,0.374,0.837,0.777,0.704,0.378,0.428
NCI-H838,0.469,0.509,0.389,0.312,0.238,0.243,0.247,0.249,0.208,0.184,0.752,0.752,0.677,0.372,0.161,0.419,–,0.403,0.362,0.218
NCI-H647,0.433,0.309,0.391,0.218,0.155,0.172,0.16,0.18,0.151,0.116,0.515,0.42,0.469,0.129,0.0662,0.7,–,0.739,0.671,0.399
